Publication PMC8778818, “Synthesis, Structural Characterization and Anticancer Activity of New 5-Trifluoromethyl-2-thioxo-thiazolo[4,5-d]pyrimidine Derivatives” (Pharmaceuticals, 2022)

Tests used:
[1] = system: A375; assay: MTT cell viability assay, A375; assay type: cell-based, human; conditions: Homo sapiens, A-375, 72 h, A375, MTT, mean ± SD
Procedure: (§1) Twelve compounds (2a-e, 3a-d and 4a-c) at a concentration range of 50–5000 μM were tested for their antiproliferative potential against four human cancer cell lines (A375—melanotic melanoma, C32—amelanotic melanoma, DU145—prostate cancer androgen-independent, MCF-7/WT—breast adenocarcinoma) and two normal cell lines: Chinese Hamster Ovary (CHO-K1) and immortalized human keratinocytes from histologically normal skin (HaCaT).
(§2) To determine the antiproliferative activity of newly synthesized compounds, the following cell lines were used: human melanotic melanoma cell line (A375), human amelanotic melanoma cell line (C32), human breast adenocarcinoma cell line (MCF-7/WT), human prostate cancer androgen-independent (DU145) and two normal cell lines: hamster ovarian (CHO-K1) and immortalized human keratinocytes from histologically normal skin (HaCaT). The cells were obtained from the cell line bank of the Department of Molecular and Cellular Biology, Wroclaw Medical University. A375, C32, MCF-7/WT, DU145 and HaCaT cells were grown in a monolayer cultured in Dulbecco’s Modified Eagle’s Medium (DMEM, Sigma-Aldrich, Poznań, Poland), supplemented with 10% of fetal bovine serum (FBS, Gibco, Paisley, UK) and 1% of antibiotics (penicillin/streptomycin, Sigma-Aldrich) and CHO-K1 were grown in HAM’s F-12 medium (Sigma-Aldrich), supplemented with 10% fetal bovine serum (FBS, Gibco) and 1% of antibiotics (penicillin/streptomycin, Sigma-Aldrich). Cell lines were cultured in the polystyrene flasks 25 or 75 cm^2 (Thermo Fisher Scientific, Waltham, MA, USA), which were stored in 37 °C and 5% CO2 in a humidified 95% atmosphere (SteriCult, Thermo Scientific, Alab). The cell medium was exchanged twice a week. The exponentially growing cells were used throughout the experiments. The cells were rinsed with phosphate-buffered saline (PBS, Sigma-Aldrich) and trypsinized by Trypsin-EDTA 0.25% solution (Sigma-Aldrich).
(§3) The influence of the compounds was performed in a monolayer culture on cancer and normal cells. Compounds were initially dissolved in DMSO; further dilutions of the compound were performed in Dulbecco’s Modified Eagle’s Medium supplemented with 10% FBS. Compounds were tested in a 50–5000 µM concentration range. In the in vitro experiments, the concentrations of DMSO in the final solution of the compounds were used 0.05%; 0.1%; 0.5%; 1%, respectively.
(§4) Cell viability was determined using the MTT colorimetric assay. All cell lines were seeded into 96-well plates to a density of 3 × 10^4 cells/well. After 24 h, the culture supernatants were removed and appropriate dilutions of compounds in the culture medium (200 µL/well) were added to the cells’ monolayer cultures and incubated for an additional 72 h. After 72 h of exposition to the compounds and the removal of the culture medium, cell viability was determined by reducing the yellow dye 3-(4,5-dimethyl-2-thiazol)-2,5-diphenyl-2H-tetrazolium bromide (MTT assay, Sigma Saint Louis, MO, USA; In Vitro Toxicology Assay) to a blue formazan product. The absorbance of the resulting solutions in three duplicate experiments was measured at the wavelength of 560 nm in a microplate reader (EnSpire, Perkin Elmer, Kraków, Poland). MTT assay is a colorimetric method that estimates the rate of metabolism in viable cells. Absorbance is directly proportional to the number of viable cells. All the experiments were performed three times and the mean absorbance values were calculated. The methodology for the evaluation of the growth of human cancer and normal cells was described previously. The cell viability in each group was expressed as a percentage of control (untreated) cells.

[2] = system: 786-0; assay: NCI-60 screen, Renal Cancer 786-0; assay type: cell-based; conditions: 786-0, 10^−5 M one dose
[3] = system: HOP-62; assay: NCI-60 screen, Non-Small Cell Lung Cancer HOP-62; assay type: cell-based; conditions: HOP-62, 10^−5 M one dose
[4] = system: SF-268; assay: NCI-60 screen, CNS Cancer SF-268; assay type: cell-based, human; conditions: SF-268, 10^−5 M one dose
[5] = system: MCF7; assay: NCI-60 screen, Breast Cancer MCF7; assay type: cell-based, human; conditions: MCF7, 10^−5 M one dose
[6] = system: SN12C; assay: NCI-60 screen, Renal Cancer SN12C; assay type: cell-based; conditions: 10^−5 M one dose
[7] = system: T-47D; assay: NCI-60 screen, Breast Cancer T-47D; assay type: cell-based; conditions: T-47D, 10^−5 M one dose
[8] = system: UACC-62; assay: NCI-60 screen, Melanoma UACC-62; assay type: cell-based, human; conditions: UACC-62, 10^−5 M one dose
[9] = system: A549/ATCC; assay: NCI-60 screen, Non-Small Cell Lung Cancer A549/ATCC; assay type: cell-based, human; conditions: 10^−5 M one dose
[10] = system: CHO-K1; assay: MTT cell viability assay, CHO-K1; assay type: cell-based, Chinese Hamster; conditions: Cricetulus griseus; CHO-K1 normal cells, MTT, 72 h, mean ± SD
Procedure: as §1, §2, §3, §4

[11] = system: SK-MEL-28; assay: NCI-60 screen, Melanoma SK-MEL-28; assay type: cell-based; conditions: SK-MEL-28, 10^−5 M one dose
[12] = system: ACHN; assay: NCI-60 screen, Renal Cancer ACHN; assay type: cell-based, human; conditions: 10^−5 M one dose
[13] = system: MCF-7/WT; assay: MTT cell viability assay, MCF-7/WT; assay type: cell-based; conditions: Homo sapiens, MCF7, 72 h, mean ± SD
Procedure: as §1, §2, §3, §4

[14] = system: HS 578T; assay: NCI-60 screen, Breast Cancer HS 578T; assay type: cell-based, human; conditions: 10^−5 M one dose
[15] = system: HaCaT; assay: MTT cell viability assay, HaCaT; assay type: cell-based, human; conditions: Homo sapiens; HaCaT normal cells, MTT, 72 h, mean ± SD
Procedure: as §1, §2, §3, §4

[16] = system: UO-31; assay: NCI-60 screen, Renal Cancer UO-31; assay type: cell-based; conditions: UO-31, 10^−5 M one dose
[17] = system: SR; assay: NCI-60 screen, Leukemia SR; assay type: cell-based, human; conditions: 10^−5 M one dose
[18] = system: C32; assay: MTT cell viability assay, C32; assay type: cell-based, human; conditions: Homo sapiens; C32, MTT, 72 h, mean ± SD
Procedure: as §1, §2, §3, §4

[19] = system: MOLT-4; assay: NCI-60 screen, Leukemia MOLT-4; assay type: cell-based, human; conditions: MOLT-4, 10^−5 M one dose
[20] = system: HCT-116; assay: NCI-60 screen, Colon Cancer HCT-116; assay type: cell-based, human; conditions: HCT-116, 10^−5 M one dose
[21] = system: NCI-H460; assay: NCI-60 screen, Non-Small Cell Lung Cancer NCI-H460; assay type: cell-based, human; conditions: NCI-H460, 10^−5 M one dose
[22] = system: KM12; assay: NCI-60 screen, Colon Cancer KM12; assay type: cell-based, human; conditions: KM12, 10^−5 M one dose

## Fc1ccc(CNc2nc(C(F)(F)F)nc3c2sc(=S)n3-c2ccccc2)cc1 [Compound 4c]
[1]
  IC50: 507 ± 22.1 µM
[2]
  Growth of Cells (%): 99.38%
[3]
  Growth of Cells (%): 92.88%
[4]
  Growth of Cells (%): 109.32%
[5]
  Growth of Cells (%): 98.77%
[6]
  Growth of Cells (%): 101.41%
[7]
  Growth of Cells (%): 85.37%
[8]
  Growth of Cells (%): 105.93%
[9]
  Growth of Cells (%): 98.32%
[10]
  IC50: 549 ± 24 µM
[11]
  Growth of Cells (%): 110.02%
[12]
  Growth of Cells (%): 99.14%
[13]
  IC50: 568 ± 24.8 µM
[14]
  Growth of Cells (%): 125.43%
[15]
  IC50: 565 ± 24.7 µM
[16]
  Growth of Cells (%): 82.87%
[17]
  Growth of Cells (%): 94.72%
[18]
  IC50: 485 ± 21.2 µM
[19]
  Growth of Cells (%): 96.58%
[20]
  Growth of Cells (%): 111.01%
[21]
  Growth of Cells (%): 109.73%
[22]
  Growth of Cells (%): 113.23%
